Assay results reported in patent US11702442B2, “Cyclic dinucleotide compounds as sting agonists” (The Regents of the University of California, priority 2019, dated 2023).
“Also recorded” adds a separate entry of the source.

How the values were obtained:
STING pathway = assay: Type-I IFN production in THP-1 cells detected with HEK-Blue IFN α/β reporter cells; assay type: cell-based, human; details: 5 μM CDN, 4 h incubation, compared with c-di-GMP
Protocol: THP-1 cells were seeded at a density of 100000 cells/well in a 96-well cell culture plate and differentiated with 25 nM of PMA for approximately 20 h prior to treatment with CDNs. Cells were transfected with 5 μM of CDNs in a permeabilization buffer containing 5 μg/mL of digitonin, then washed and incubated in RPMI medium with 2% FBS at 37° C. for 4 h. 50 μL of cell culture supernatant per well was transferred to 150 μL of HEK-Blue IFN α/β reporter cells seeded at 50000 cells/well in a 96-well cell culture plate and incubated at 37° C. overnight. The reporter cells were spun down the next day, and 50 μL of cell culture supernatant per well was transferred to a 96-well plate and added with 150 μL of QUANTI-Blue™ SEAP detection medium (InvivoGen). The samples were then incubated at 37° C. for 1 h 20 min before absorption was measured at 640 nm. The absorption signal of each sample was normalized to untreated samples. Two independent assays were performed in duplicate or triplicate. Error bars indicate SD.
To preliminarily determine whether the synthetic c-di-GMP analogues could activate the IFN response in eukaryotic cells, THP-1 cells were treated with 5 μM of c-di-GMP, c-GthGMP and c-di-thGMP.
Detecting type-I IFN production with reporter cells. […] The samples were then incubated at 37° C. for 80 min before absorption was measured at 640 nm with an EnSpire plate reader (PerkinElmer). […]

rocR = target: T1, rocR (Pseudomonas aeruginosa, UniProt Q9HX69); assay: rocR-mediated CDN hydrolysis monitored by HPLC; assay type: biochemical, P. aeruginosa; details: for k2 / k3 / k1 / k2 (cleavage reaction) / time to complete cleavage by rocR: 100 nM rocR, 37° C.; for k2 / k3: Table 3; for k1: enzyme/substrate association; for order of gradually reduced rocR hydrolysis rate: FIG. 10F
T1 construct: made in house; host or cells: Escherichia coli BL21(DE3)
T1 sequence (Q9HX69 whole entry): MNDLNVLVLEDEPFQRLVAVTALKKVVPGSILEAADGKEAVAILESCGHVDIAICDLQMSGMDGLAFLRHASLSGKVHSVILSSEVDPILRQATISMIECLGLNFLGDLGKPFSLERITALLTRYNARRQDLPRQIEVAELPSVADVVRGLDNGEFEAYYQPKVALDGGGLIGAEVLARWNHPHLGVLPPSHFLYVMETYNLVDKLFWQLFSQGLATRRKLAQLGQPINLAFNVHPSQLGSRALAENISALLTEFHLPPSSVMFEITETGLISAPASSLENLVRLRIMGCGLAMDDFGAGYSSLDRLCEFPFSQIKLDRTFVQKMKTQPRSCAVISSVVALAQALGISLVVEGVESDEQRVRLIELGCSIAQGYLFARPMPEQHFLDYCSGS
From the text: [1a,27] rocR is a PDE that contains an EAL domain and specifically recognizes and cleaves c-di-GMP into the linear dinucleotide pGpG. […] [28a,29]
RocR is reported to follow Michaelis-Menten kinetics. [27c,28a] Scheme 2a was therefore used to analyze the reaction kinetics, where k1 and k−1 describe the enzyme/substrate association and dissociation, respectively, while k2 reflects the cleavage reaction. Equations (10)-(13) were thus used to extract the rate constants. When “asymmetrical” mixed c-di-GMP analogues are treated with rocR, the enzyme may, in principle, recognize and cleave either phosphodiester bonds, producing pN1pN2 and pN2pN1. Assuming the two products result from different binding orientation of the heterodimeric CDNs, Scheme 2b is therefore introduced to model the cleavage reactions, where k1, k−1 and k2 reflect the association/dissociation and cleavage of the heterodimeric CDN in one orientation, respectively, and k3, k−3 and k4 reflect the other. Equations (14)-(19) were used to extract the rate constants.
Equations(10)-(19) d[S]/dt=−k1[E][S]+k−1[ES] (10) d[E]/dt=−k1[E][S]+k−1[ES]+k2[ES] (11) d[P]/dt=k2[ES] (12) d[ES]/dt=k1[E][S]−k−1[ES]−k2[ES] (13) d[S]/dt=−k1[E][S]+k−1[ES1]−k3[E][S]+k−3[ES2] (14) d[P1]/dt=k2[ES1] (15) d[P2]/dt=k4[ES2] (16) d[E]/dt=−(k1+k3)[E][S]+(k−1+k2)[ES1]+[…][ES2]] (17) d[ES1]/dt=k1[E][S]−k−1[ES1]−k2[ES1] (18) d[ES2]/dt=k3[E][S]−k−3[ES2]−k4[ES2] (19)
CDN hydrolysis with rocR. […] of CDN was incubated with 100 nM of rocR in a buffer containing 100 mM Tris-HCI, pH 8, 20 mM KCI, 25 mM MgCl2 at 37° C. Aliquots of the reaction mixture were taken out at designated time points and quenched with 100 mM CaCl2. All aliquots were filtered before subjected to reverse-phase HPLC analysis. The reaction mixture was separated by Sepax Bio C-18 column (250×10 mm, 5 µm particle size) with a gradient of 0.1-15% of 10 mM NH4OAc, pH7 in Me0H in 12 minutes at 25° C. or 50° C. (only for reactions of c-GtzGMP and c-di-tzGMP) on an Agilent 1200 series HPLC system (Agilent Technologies).
Data Analysis and curve fitting. […] The relative concentrations were plotted against time.

DncV = DncV (Vibrio cholerae serotype O1, UniProt Q9KVG7); details: pseudo-second order simulation, FL Model 2
Sequence of DncV (Q9KVG7 whole entry): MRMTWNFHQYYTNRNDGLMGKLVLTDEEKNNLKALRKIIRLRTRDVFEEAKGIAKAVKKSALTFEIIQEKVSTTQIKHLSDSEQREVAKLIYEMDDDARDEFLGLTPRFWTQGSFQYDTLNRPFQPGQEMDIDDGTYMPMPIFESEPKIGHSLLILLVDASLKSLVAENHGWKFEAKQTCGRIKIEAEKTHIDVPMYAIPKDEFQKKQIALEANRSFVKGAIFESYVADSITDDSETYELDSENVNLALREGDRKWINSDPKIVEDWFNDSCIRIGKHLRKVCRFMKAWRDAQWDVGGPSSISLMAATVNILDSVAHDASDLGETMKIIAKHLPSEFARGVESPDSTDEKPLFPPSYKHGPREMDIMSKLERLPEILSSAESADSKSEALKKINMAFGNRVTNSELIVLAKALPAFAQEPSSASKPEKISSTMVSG
Protocol: The bacterial enzyme DncV was thus incubated with either GTP, ^thGTP, ^tzGTP or mixtures thereof under the same conditions as the HPLC-monitored reactions. Aliquots were treated with calf intestinal alkaline phosphatase (CIAP) at designated times, and emission spectra were taken after appropriate dilution.
Unlike integrated chromatographic analyses, which can separately account for all individual species present, the observed fluorescence signal reflects the sum of all emissive species. To facilitate quantitative analyses of fluorescence data, a conversion factor (a) was introduced to the simulation of the fluorescence-monitored reaction kinetics. This factor bridges the integrated fluorescent spectrum and the concentration of a given chromophore at a given set of conditions and can be calculated from the integrated emission spectrum (FLint) of a given chromophore with known concentration ([C]) using Equation (5). […] To compare the fluorescence- and HPLC-monitored reaction kinetics, Equation (6) was used to correlate the recorded fluorescence spectrum with the concentrations of different species in the reaction mixture. As a first attempt, the k values extracted from the HPLC analysis were used to fit the fluorescence data (referred to as FL Model 1). […]

| Structure (SMILES) | type-I IFN induction (STING pathway) | k2 (rocR) | k3 (rocR) | k1 (rocR) | order of gradually reduced rocR hydrolysis rate (rocR) | products of rocR-mediated cleavage (rocR; mixed CDNs, HPLC) | k2 (cleavage reaction) (rocR) | time to complete cleavage by rocR (rocR) | cleavage by rocR (rocR; after 40 min of incubation with rocR) | kapp (apparent kinetics rate constant) (DncV) |
| --- | --- | --- | --- | --- | --- | --- | --- | --- | --- | --- |
| Nc1nc2c([C@@H]3O[C@@H]4COP(=O)(O)O[C@H]5[C@@H](O)[C@H](n6cnc7c(=O)[nH]c(N)nc76)O[C@@H]5COP(=O)(O)O[C@H]4[C@H]3O)scc2c(=O)[nH]1 [c-G^thGMP] | comparable efficiency to cdi-GMP; also recorded: comparable potency to c-di-GMP | 0.033 ± 0.001 s⁻¹ | 5 ± 0.57 s⁻¹ | 21000 ± 1000 M⁻¹ s⁻¹ | c-di-GMP, c-di-^tzGMP, c-G^tzGMP, c-G^thGMP and lastly c-di-^thGMP | a single product | – | – | – | – |
| Nc1nc2c(ncn2[C@@H]2O[C@@H]3COP(=O)(O)O[C@H]4[C@@H](O)[C@H](n5cnc6c(=O)[nH]c(N)nc65)O[C@@H]4COP(=O)(O)O[C@H]3[C@H]2O)c(=O)[nH]1 [c-di-GMP, reference compound] | – | 1.15 ± 0.21 s⁻¹ | 0.76 ± 0.03 s⁻¹ | 3.96e+06 ± 70000 M⁻¹ s⁻¹ | c-di-GMP, c-di-^tzGMP, c-G^tzGMP, c-G^thGMP and lastly c-di-^thGMP | – | 0.76 ± 0.03 s⁻¹ | ~3 min | – | – |
| Nc1nc2c([C@@H]3O[C@@H]4COP(=O)(O)O[C@H]5[C@@H](O)[C@H](c6scc7c(=O)[nH]c(N)nc67)O[C@@H]5COP(=O)(O)O[C@H]4[C@H]3O)scc2c(=O)[nH]1 [c-di-^thGMP] | no activity | – | – | – | c-di-GMP, c-di-^tzGMP, c-G^tzGMP, c-G^thGMP and lastly c-di-^thGMP | – | – | – | No cleaved c-di-^thGMP was observed; also recorded: did not produce observable amounts of cleaved c-di-^thGMP products | 0.53 ± 0.05 M⁻¹ s⁻¹ |
| Nc1nc2c([C@@H]3O[C@@H]4COP(=O)(O)O[C@H]5[C@@H](O)[C@H](c6snc7c(=O)[nH]c(N)nc67)O[C@@H]5COP(=O)(O)O[C@H]4[C@H]3O)snc2c(=O)[nH]1 [c-di-^tzGMP] | – | 0.099 ± 0.07 s⁻¹ | 0.83 ± 0.55 s⁻¹ | 43000 ± 20000 M⁻¹ s⁻¹ | c-di-GMP, c-di-^tzGMP, c-G^tzGMP, c-G^thGMP and lastly c-di-^thGMP | – | 0.83 ± 0.55 s⁻¹ | ≤ 20 min | – | 1.57 ± 0.15 M⁻¹ s⁻¹ |
